The text below walks through data of US11999727B2 (Tango Therapeutics, Inc., priority 2020, dated 2024).

Assay [1] concerns the target T1, PRMT5 (Homo sapiens, UniProt O14744).
T1 construct: purchased Viva (custom protein)
Put plainly: PRMT5 biochemical IC50 assay with no cofactor. The settings on record: PRMT5, no cofactor; read-out: No Cofactor/rel IC50. From the text: Table 1 indicates IC50 values (μM) against PRMT5 for exemplary compounds in the presence of SAM as cofactor, with no cofactor, and with MTA as cofactor, respectively (columns 4-6). […] Ki values can be calculated from the IC50 values as described in the Examples section. As detailed in the Examples section, for the assay performed in the presence of SAM, IC50=Ki×1.5 (Ki=IC50/1.5).

The test system of assay [2] is HAP1 MTAP-deleted cell line. Nature of the assay: SDMA in-cell western assay, HAP1 MTAP-deleted. The assay is classed as cell-based. The settings on record: for IC50: Homo sapiens, HAP1, SDMA in-cell western, HAP1 MTAP-deleted, read-out: HAP1 MTAP deleted IC50; for MTAP intact/deleted ratio: IC50 ratio HAP1 MTAP-intact / HAP1 MTAP-deleted, SDMA in-cell western. Put shortly:
(§1)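 Readout: in-cell western detection of SDMA. Cells: HAP1 expressing endogenous MTAP and an MTAP-null HAP1 counterpart. Output: IC50.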

The subject of assay [3] is HAP1 MTAP-intact cell line. Nature of the assay: SDMA in-cell western assay, HAP1 MTAP-intact. The assay is classed as cell-based. The settings on record: Homo sapiens, HAP1, SDMA in-cell western, HAP1 MTAP-intact; read-out: MTAP HAP1 intact IC50. Put shortly:
as §1

Assay [4] has as its target T1, PRMT5. Nature of the assay: PRMT5 biochemical IC50 assay with SAM as cofactor. The settings on record: PRMT5, SAM as cofactor; read-out: SAM IC50.
Assay [5] deals with HAP1 MTAP-deleted cell line. Put plainly: Viability assay, MTAP-deleted cell line. In kind it is cell-based. The settings on record: Homo sapiens, HAP1, viability assay, HAP1 MTAP-deleted; read-out: HAP1 MTAP deleted viability. The source says: Table 1 additionally indicates IC50 values in a viability assay for the MTAP-deleted cell line (column 10), indicating the effect of treatment with compound on cell survival.

For assay [6], the target named is T1, PRMT5. Nature of the assay: PRMT5 biochemical IC50 assay with MTA as cofactor. The settings on record: PRMT5, MTA as cofactor; read-out: MTA IC50.

Molecules are shown by their SMILES.

T1 sequence (O14744 whole entry): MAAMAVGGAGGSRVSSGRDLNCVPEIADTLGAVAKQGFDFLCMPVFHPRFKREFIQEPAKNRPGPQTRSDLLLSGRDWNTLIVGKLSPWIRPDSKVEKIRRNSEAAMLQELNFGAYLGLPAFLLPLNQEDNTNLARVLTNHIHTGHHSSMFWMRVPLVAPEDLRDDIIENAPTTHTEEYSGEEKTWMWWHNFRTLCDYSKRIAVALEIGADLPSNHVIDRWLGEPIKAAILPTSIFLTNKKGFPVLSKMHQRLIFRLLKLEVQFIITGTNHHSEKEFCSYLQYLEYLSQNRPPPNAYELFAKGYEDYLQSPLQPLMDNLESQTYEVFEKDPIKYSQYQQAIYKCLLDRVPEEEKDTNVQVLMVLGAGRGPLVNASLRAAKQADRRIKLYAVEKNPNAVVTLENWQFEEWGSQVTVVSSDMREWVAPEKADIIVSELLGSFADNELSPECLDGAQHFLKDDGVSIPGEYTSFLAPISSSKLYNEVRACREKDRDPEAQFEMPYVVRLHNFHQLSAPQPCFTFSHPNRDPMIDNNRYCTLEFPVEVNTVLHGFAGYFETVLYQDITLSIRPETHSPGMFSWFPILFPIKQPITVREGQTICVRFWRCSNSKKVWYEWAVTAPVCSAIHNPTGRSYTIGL
T1 sequence (Q9BQA1 whole entry partner): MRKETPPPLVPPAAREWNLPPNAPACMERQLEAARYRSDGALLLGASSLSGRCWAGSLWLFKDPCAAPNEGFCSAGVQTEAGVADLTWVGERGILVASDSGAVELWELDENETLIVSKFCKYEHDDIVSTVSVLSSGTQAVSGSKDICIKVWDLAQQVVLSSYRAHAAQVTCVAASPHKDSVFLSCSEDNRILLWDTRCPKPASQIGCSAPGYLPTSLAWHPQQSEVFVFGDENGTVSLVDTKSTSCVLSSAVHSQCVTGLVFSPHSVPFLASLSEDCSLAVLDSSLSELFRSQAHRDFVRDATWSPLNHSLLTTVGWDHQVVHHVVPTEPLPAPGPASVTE

Take `CCc1cc(NC(=O)C(=O)N2C[C@H](C)CC[C@H]2c2ccc(C(N)=O)s2)cnc1N` (single isomer, unassigned) [Compound 838]: the IC50 was below 50 nM on PRMT5 [1]; below 100 nM in assay [2]; 100 to 1000 nM in assay [3]; 50 to 500 nM at PRMT5 [4]; below 1000 nM in assay [5]; below 50 nM at PRMT5 [6]. Further, the MTAP intact/deleted ratio entry in assay [2] is recorded as “A (an IC50 ratio greater than or equal to 10 fold)”.

Consider `CNC(=O)c1ccc([C@H]2CC[C@H](C)CN2C(=O)C(=O)Nc2cncc(C(N)=O)c2)s1` (single isomer, unassigned) [Compound 839], for which the IC50 was above 500 nM on PRMT5 [1]; above 1000 nM in assay [2]; above 1000 nM in assay [3]; above 500 nM on PRMT5 [4]; above 10000 nM in assay [5]; above 500 nM on PRMT5 [6]. Moreover, the MTAP intact/deleted ratio entry in assay [2] was “B (an IC50 ratio greater than or equal to 3 fold but lower than 10 fold)”.

As for `CCc1cc(NC(=O)C(=O)N2C[C@@H](C)CC[C@@H]2c2ccc(C(=O)NC)s2)cnc1N` (single isomer, unassigned) [Compound 840], the IC50 at PRMT5 [1] was below 50 nM; in assay [2], below 100 nM; in assay [3] it was 100 to 1000 nM; at PRMT5 [4] it was 50 to 500 nM; in assay [5], below 1000 nM; at PRMT5 [6], below 50 nM. The MTAP intact/deleted ratio entry in assay [2] is listed as “A (an IC50 ratio greater than or equal to 10 fold)”.

Consider `CCc1cc(NC(=O)C(=O)N2C[C@H](C)CC[C@H]2c2ccc(-c3cncs3)cc2)cnc1N` (single isomer, unassigned) [Compound 841, N-(6-amino-5-ethylpyridin-3-yl)-2-(5-methyl-2-(4-(thiazol-5-yl)phenyl)piperidin-1-yl)-2-oxoacetamide], for which the IC50 at PRMT5 [1] is below 50 nM; in assay [2], below 100 nM; in assay [3], 100 to 1000 nM; on PRMT5 [4], 50 to 500 nM; in assay [5], below 1000 nM; at PRMT5 [6], below 50 nM. Moreover, in assay [2], the MTAP intact/deleted ratio result was “A (an IC50 ratio greater than or equal to 10 fold)”.

With `COc1ncc(NC(=O)C(=O)N2C[C@@H](C)CC[C@@H]2c2ccc(-c3cncs3)cc2)cc1C(N)=O` (single isomer, unassigned) [Compound 842, 2-methoxy-5-(2-(5-methyl-2-(4-(thiazol-5-yl)phenyl)piperidin-1-yl)-2-oxoacetamido)nicotinamide], the IC50 was above 500 nM at PRMT5 [1]; above 1000 nM in assay [2]; above 1000 nM in assay [3]; above 500 nM on PRMT5 [4]; above 10000 nM in assay [5]; above 500 nM on PRMT5 [6]. Also, in assay [2], the MTAP intact/deleted ratio result is recorded as “B (an IC50 ratio greater than or equal to 3 fold but lower than 10 fold)”.

As to `CNC(=O)c1ccc([C@@H]2CC[C@@H](C)CN2C(=O)C(=O)Nc2cnc(OC)c(C(N)=O)c2)s1` (single isomer, unassigned) [Compound 843], the IC50 on PRMT5 [1] was above 500 nM; in assay [2], above 1000 nM; in assay [3], above 1000 nM; at PRMT5 [4], above 500 nM; in assay [5], above 10000 nM; at PRMT5 [6] it was above 500 nM. Also, in assay [2], the MTAP intact/deleted ratio entry is listed as “B (an IC50 ratio greater than or equal to 3 fold but lower than 10 fold)”.

Consider `COc1ncc(NC(=O)C(=O)N2C[C@H](C)CC[C@H]2c2ccc(C(N)=O)s2)cc1C(N)=O` (single isomer, unassigned) [Compound 844], for which the IC50 at PRMT5 [1] was above 500 nM; in assay [2], above 1000 nM; in assay [3], above 1000 nM; on PRMT5 [4], above 500 nM; in assay [5] it was above 10000 nM; on PRMT5 [6], above 500 nM. Moreover, the MTAP intact/deleted ratio result in assay [2] is given as “C (an IC50 ratio of less than 3 fold)”.

Take `CCc1cc(NC(=O)C(=O)N2C[C@@H](C)CC[C@@H]2c2ccc(C(N)=O)s2)cnc1N` (single isomer, unassigned) [Compound 845]: the IC50 on PRMT5 [1] was above 500 nM; in assay [2], above 1000 nM; in assay [3], above 1000 nM; at PRMT5 [4] it was above 500 nM; in assay [5] it was above 10000 nM; at PRMT5 [6], above 500 nM. In assay [2], the MTAP intact/deleted ratio entry is given as “B (an IC50 ratio greater than or equal to 3 fold but lower than 10 fold)”.

In the case of `Cc1cc(NC(=O)C(=O)N2C[C@H](C)CC[C@H]2c2cc(F)c(F)c(Cl)c2)cnc1N` (single isomer, unassigned) [Compound 847], the IC50 at PRMT5 [1] is above 500 nM; in assay [2] it was above 1000 nM; in assay [3], above 1000 nM; on PRMT5 [4], above 500 nM; in assay [5] it was above 10000 nM; on PRMT5 [6] it was above 500 nM. Further, in assay [2], the MTAP intact/deleted ratio result is reported as “C (an IC50 ratio of less than 3 fold)”.

On to `Cc1cc(NC(=O)C(=O)N2C[C@H](C)CC[C@H]2c2ccc(N)nc2)cnc1N` (single isomer, unassigned) [Compound 848], for which the IC50 was below 50 nM at PRMT5 [1]; below 100 nM in assay [2]; 100 to 1000 nM in assay [3]; 50 to 500 nM at PRMT5 [4]; below 1000 nM in assay [5]; below 50 nM on PRMT5 [6]. Also, the MTAP intact/deleted ratio entry in assay [2] was “A (an IC50 ratio greater than or equal to 10 fold)”.

As for `CNC(=O)c1ccc([C@@H]2CC[C@@H](C)CN2C(=O)C(=O)Nc2cnc(N)c(C)c2)s1` (single isomer, unassigned) [Compound 849], the IC50 was above 500 nM at PRMT5 [1]; above 1000 nM in assay [2]; above 1000 nM in assay [3]; above 500 nM on PRMT5 [4]; above 10000 nM in assay [5]; above 500 nM at PRMT5 [6]. The MTAP intact/deleted ratio entry in assay [2] was “C (an IC50 ratio of less than 3 fold)”.

Regarding `COc1ncc(NC(=O)C(=O)N2C[C@@H](C)CC[C@@H]2c2ccc(NS(C)(=O)=O)cc2)cc1C(N)=O` (single isomer, unassigned) [Compound 850], the IC50 at PRMT5 [1] is above 500 nM; in assay [2] it was above 1000 nM; in assay [3], above 1000 nM; at PRMT5 [4] it was above 500 nM; in assay [5], above 10000 nM; on PRMT5 [6], above 500 nM. Also, the MTAP intact/deleted ratio entry in assay [2] is reported as “C (an IC50 ratio of less than 3 fold)”.

On to `CCc1cc(NC(=O)C(=O)N2C[C@@H](C)CC[C@@H]2c2ccc(N)nc2)cnc1N` (single isomer, unassigned) [Compound 851], for which the IC50 at PRMT5 [1] was below 50 nM; in assay [2] it was below 100 nM; in assay [3] it was 100 to 1000 nM; on PRMT5 [4], 50 to 500 nM; in assay [5], below 1000 nM; at PRMT5 [6] it was below 50 nM. Besides, in assay [2], the MTAP intact/deleted ratio entry is “A (an IC50 ratio greater than or equal to 10 fold)”.

Take `CNc1nc2cc([C@H]3CC[C@H](C)CN3C(=O)C(=O)Nc3cnc(N)c(C)c3)ccc2s1` (single isomer, unassigned) [Compound 852]: the IC50 on PRMT5 [1] is below 50 nM; in assay [2], below 100 nM; in assay [3], 100 to 1000 nM; on PRMT5 [4], 50 to 500 nM; in assay [5], below 1000 nM; on PRMT5 [6], below 50 nM. Further, the MTAP intact/deleted ratio entry in assay [2] is given as “A (an IC50 ratio greater than or equal to 10 fold)”.

In the case of `CNc1nc2cc([C@@H]3CC[C@@H](C)CN3C(=O)C(=O)Nc3cnc(N)c(C)c3)ccc2s1` (single isomer, unassigned) [Compound 855], the IC50 was above 500 nM at PRMT5 [1]; above 1000 nM in assay [2]; above 1000 nM in assay [3]; above 500 nM at PRMT5 [4]; above 10000 nM in assay [5]; above 500 nM at PRMT5 [6]. Besides, in assay [2], the MTAP intact/deleted ratio result is “C (an IC50 ratio of less than 3 fold)”.

As to `CCc1cc(NC(=O)C(=O)N2C[C@H](C)CC[C@H]2c2ccc(N)nc2)cnc1N` (single isomer, unassigned) [Compound 856], the IC50 is above 500 nM at PRMT5 [1]; above 1000 nM in assay [2]; above 1000 nM in assay [3]; above 500 nM at PRMT5 [4]; above 10000 nM in assay [5]; above 500 nM on PRMT5 [6]. The MTAP intact/deleted ratio entry in assay [2] is recorded as “B (an IC50 ratio greater than or equal to 3 fold but lower than 10 fold)”.

Consider `Cc1cc(NC(=O)C(=O)N2C[C@@H](C)CC[C@@H]2c2cc(F)c(F)c(Cl)c2)cnc1N` (single isomer, unassigned) [Compound 857], for which the IC50 on PRMT5 [1] is 50 to 500 nM; in assay [2], below 100 nM; in assay [3], above 1000 nM; on PRMT5 [4], 50 to 500 nM; in assay [5], 1000 to 10000 nM; on PRMT5 [6], below 50 nM. Further, in assay [2], the MTAP intact/deleted ratio entry is reported as “A (an IC50 ratio greater than or equal to 10 fold)”.

For `COc1ncc(NC(=O)C(=O)N2C[C@H](C)CC[C@H]2c2ccc(NS(C)(=O)=O)cc2)cc1C(N)=O` (single isomer, unassigned) [Compound 858], the IC50 at PRMT5 [1] was below 50 nM; in assay [2], below 100 nM; in assay [3] it was above 1000 nM; on PRMT5 [4], 50 to 500 nM; in assay [5] it was 1000 to 10000 nM; at PRMT5 [6], below 50 nM. In addition, in assay [2], the MTAP intact/deleted ratio entry is recorded as “A (an IC50 ratio greater than or equal to 10 fold)”.
